Measured values taken from EPA's CvTdb concentration-time database.

Assays:
[1] = tested on: Mouse; assay: concentration in plasma after dosing; conditions: 2 h; dosed: 2-Hydroxy-4-methoxybenzophenone; 50 mg/kg; iv; Female; B6C3F1
[2] = tested on: Rat; assay: concentration in plasma after dosing; conditions: 4 h; dosed: 2-Hydroxy-4-methoxybenzophenone; 500 mg/kg; oral; Male; F344
[3] = tested on: Mouse; assay: concentration in plasma after dosing; conditions: 0.25 h; dosed: 2-Hydroxy-4-methoxybenzophenone; 500 mg/kg; oral; Male; B6C3F1
[4] = tested on: Rat; assay: concentration in plasma after dosing; conditions: dosed: 2-Hydroxy-4-methoxybenzophenone, 100 mg/kg, oral, Female, F344
[5] = tested on: Mouse; assay: concentration in plasma after dosing; conditions: 2.5 min; dosed: 2-Hydroxy-4-methoxybenzophenone; 250 mg/kg; oral; Male; B6C3F1
[6] = tested on: Rat; assay: concentration in plasma after dosing; conditions: dosed: 2-Hydroxy-4-methoxybenzophenone, 500 mg/kg, oral, Female, F344
[7] = tested on: Mouse; assay: concentration in plasma after dosing; conditions: 10 min; dosed: 2-Hydroxy-4-methoxybenzophenone; 250 mg/kg; oral; Male; B6C3F1
[8] = tested on: Mouse; assay: concentration in plasma after dosing; conditions: dosed: 2-Hydroxy-4-methoxybenzophenone, B6C3F1
[9] = tested on: Mouse; assay: concentration in plasma after dosing; conditions: 10 min; dosed: 2-Hydroxy-4-methoxybenzophenone; 250 mg/kg; oral; Female; B6C3F1
[10] = tested on: Rat; assay: concentration in plasma after dosing; conditions: dosed: 2-Hydroxy-4-methoxybenzophenone, 8 mg/kg, iv, Male, F344
[11] = tested on: Rat; assay: concentration in plasma after dosing; conditions: 20 min; dosed: Nitrite; 20 mg/kg; iv; Male; F344
[12] = tested on: Rat; assay: concentration in plasma after dosing; conditions: 5 min; dosed: Nitrite; 80 mg/kg; oral; Female; F344
[13] = tested on: Rat; assay: concentration in plasma after dosing; conditions: dosed: Nitrite, 40 mg/kg, oral, Female, F344
[14] = tested on: Rat; assay: concentration in liver after dosing; conditions: 3 h; dosed: Fluorotelomer alcohol 8+2; 24 mg/kg; oral; Male; Harlan Sprague Dawley
[15] = tested on: Rat; assay: concentration in liver after dosing; conditions: 24 h; dosed: Perfluorooctanoic acid; 80 mg/kg; oral; Female; Harlan Sprague Dawley
[16] = tested on: Rat; assay: concentration in liver after dosing; conditions: 12 h; dosed: Perfluorooctanoic acid; 12 mg/kg; oral; Male; Harlan Sprague Dawley
[17] = tested on: Rat; assay: concentration in brain after dosing; conditions: 6 h; dosed: Perfluorooctanoic acid; 12 mg/kg; oral; Male; Harlan Sprague Dawley
[18] = tested on: Rat; assay: concentration in liver after dosing; conditions: 12 h; dosed: Perfluorooctanoic acid; 12 mg/kg; oral; Male; Harlan Sprague Dawley; remark: listed apart in the source
[19] = tested on: Rat; assay: concentration in liver after dosing; conditions: 6 h; dosed: Perfluorooctanoic acid; 80 mg/kg; oral; Female; Harlan Sprague Dawley
[20] = tested on: Rat; assay: concentration in plasma after dosing; conditions: 0.25 h; dosed: 678-39-7; 12 mg/kg; iv; Male; F344
[21] = tested on: Rat; assay: concentration in plasma after dosing; conditions: 0.5 h; dosed: Potassium Perfluorobutane Sulfonate; 4 mg/kg; iv; Male; F344
[22] = tested on: Rat; assay: concentration in plasma after dosing; conditions: dosed: Potassium Perfluorobutane Sulfonate, 20 mg/kg, oral, Male, Harlan Sprague Dawley
[23] = tested on: rat; assay: concentration in plasma after dosing; conditions: dosed: benzo[a]pyrene, 100 ug/m^3, inhalation, duration: 4 hr, F344
[24] = tested on: rat; conditions: dosed: benzo[a]pyrene, 1 mg/kg, iv, male, Sprague Dawley
[25] = tested on: rat; assay: concentration in blood after dosing; conditions: dosed: methanol, male, CDF(F344)/CrlBR

COc1ccc(C(=O)c2ccccc2)c(O)c1 [2-Hydroxy-4-methoxybenzophenone]
Conditions	concentration in plasma [µg/mL]
[1]	0.317
[2]	0.345
[3]	0.395
[5]	0.0182
[7]	0.0931
[9]	0.625

Conditions	concentration in plasma [µg/mL]
[4], 3 h	0.0136
[4], 10 min	0.0278
[6], 2.5 min	0.0473
[6], 4 h	0.24
[10], 0.25 h	1.95
[10], 2 h	0.0846

concentration in plasma [µg/mL], [8]
Conditions	0.25 h	2 h	2.5 min	3 h	10 min
50 mg/kg, iv, Female	4.57	0.259	–	0.193	9.66
50 mg/kg, iv, Male	5.62	0.279	–	0.235	11.5
100 mg/kg, oral, Female	0.103	0.0201	0.00658	0.0118	0.0573
100 mg/kg, oral, Male	0.0622	0.0365	0.0134	0.0193	0.0415
250 mg/kg, oral, Female	0.26	0.0458	0.022	0.264	0.165
250 mg/kg, oral, Male	0.519	0.0548	0.0157	0.0419	0.0695
500 mg/kg, oral, Female	2.95	11.5	–	–	0.526
500 mg/kg, oral, Male	0.238	0.0731	–	–	0.176

O=N[O-] [Nitrite]
Conditions	concentration in plasma [µg/mL]
[11]	7.6
[12]	18.7

[13]
Conditions	concentration in plasma [µg/mL]
1 h	8.3
2 h	3.6

O=C(O)C(F)(F)C(F)(F)C(F)(F)C(F)(F)C(F)(F)C(F)(F)C(F)(F)F [Perfluorooctanoic acid]
Conditions	concentration in brain [ng/g]	concentration in liver [ng/g]	concentration in plasma [ng/mL]
[14]	–	1430	–
[15]	–	10000	–
[16]	–	63300	–
[17]	1350	–	–
[18]	–	56700	–
[19]	–	130000	–
[20]	–	–	176

O=S(=O)([O-])C(F)(F)C(F)(F)C(F)(F)C(F)(F)F.[K+] [Potassium Perfluorobutane Sulfonate]
Conditions	concentration in plasma [ng/mL]
[21]	12500

[22]
Conditions	concentration in plasma [ng/mL]
0.25 h	24800
24 h	848

c1ccc2c(c1)cc1ccc3cccc4ccc2c1c34 [benzo[a]pyrene]
concentration in plasma [µg/mL], [23]
Conditions	0.05 h	1 h	2 h	4 h
female	0.01	0.023	0.011	0.00107
male	0.0149	0.018	0.012	0.002

[24]
Conditions	amount in urine after dosing [ng]
2.991 h	1.11
6.006 h	1.15
24 h	1.15

CO [methanol]
[25], 200 ppm, inhalation, duration: 6 hr
Conditions	concentration in blood [µg/mL]
0 h	4.78
0.5 h	2.95
1 h	1.99
1.5 h	3.16
2 h	2.1
3 h	0.949
4.5 h	1.73
6 h	0.396
8 h	0.704
10 h	0.528

[25], 100 mg/kg, iv
Conditions	concentration in blood [µg/mL]
0.3747 h	90.9
0.621 h	80.5
1.114 h	70.3
1.606 h	61.3
2.08 h	60.6
3.027 h	39.2
4.505 h	26.1
6.002 h	12.2
